Measured values from patent US11701316B2, “Synergistic anti-inflammatory compositions” (The Procter & Gamble Company, priority 2020, dated 2023).
Where “and” joins values, the source holds several entries; their conditions need not be identical. Equal values may be shown once.

Experiments:
[1] = cited from earlier work
[2] = system: PGE2 release from keratinocytes; assay: Prostaglandin E2 (PGE2) assay in UVB-stressed TERT keratinocytes, normalized to ATP activity; assay type: cell-based, human; details: tKC
Description: Inhibiting the Cell's Inflammation Response to a Stressor—Prostaglandin E2 (“PGE2”) Assay.
PGE2 is a hormone-like substance that is known to participate in modulation of inflammation. Cellular inflammation is associated with a variety of hair, skin and scalp conditions, and thus inhibiting PGE2 activation vis-à-vis cellular inflammation may help treat these types of hair, skin and scalp conditions.
TERT keratinocytes (“tKC”-tKCs are human keratinocytes which have been transfected with the human telomerase reverse transcriptase gene to immortalize the cells) are obtained from Jerry Shay, University of Texas, Southwestern and plated at 40,000 cells/well into 24-well plates in 1 ml/well volume. EpiLife Medium (Life Technologies cat # MEPICFPRF500) supplemented with keratinocyte growth supplement (Life technologies cat #S-001-5) is used as the assay media. The cells are grown to confluence/near confluence, (typically 24 hours after plating 40,000 cells/well in 24 well plate) and then subjected to 15 mJ/cm^2 UVB-stress (typically […] in BioSun). The test compositions (strobilurins, salicylic acid, strobilurins+salicylic acid, and positive control 10 uM idebenone) are added to replace the medium (EpiLife Medium with 0.1% final concentration of DMSO-briefly, 1000× stocks of actives and combinations made in 100% DMSO and diluted into Epilife media 1 to 1000), and the plates are incubated for 18-24 hours. The supernatant is removed from each well, and the cells are rinsed with 2 ml/well medium (without supplements). A Cell Titer-Glo assay (Promega cat # G7571; Madison Wis.) is used to measure ATP activity, is conducted on the cells for normalization. The supernatant is tested in a PGE2 assay (Prostaglandin E2 Assay kit from Cisbio Bioassays cat# 62P2APEB) according to the manufacturer's instructions. The PGE2 results are normalized to ATP activity. The PGE2 quantitation (pg/mL) from the supernatant is divided by the normalization factor (treatment ATP/control ATP).
Example Calculation to Compute PGE2 Inhibition by Strobilurin
Luminescence of vehicle control in ATP assay=704567
Luminescence of strobilurin treatment in ATP assay=678903
Normalization factor for strobilurin treatment=1.038
PGE2 quantitation for vehicle control=2458 pg/mL PGE2
PGE2 quantitation for strobilurin treatment=2347 pg/mL PGE2
Student's T-Test (equal variance, 2 sided) are used to calculate p-values between observed combinations and expected combinations with p-value <0.05 considered statistically significant. Expected combination values are calculated by adding the PGE2 inhibition values of strobilurins alone and salicylic acid alone. Synergy factor is simply the ratio of observed combination/expected combination. Synergy factors greater than 1.0 with a p-value <0.05 are deemed synergistic.

[3] = strobilurin alone, 1 × 10−5 w/v % (100:1), UVB
[4] = strobilurin alone, 1 × 10−6 w/v % (10:1), UVB
[5] = strobilurin alone, 1 × 10−7 w/v % (1:1), UVB
[6] = strobilurin alone, 1 × 10−7 w/v % (column 1:10), 15 mJ/cm2 UVB, 18-24 hours
[7] = strobilurin alone, 5 × 10−6 w/v % (50:1), UVB

Row | Structure (SMILES) | solubility in water [1] | % PGE2 Inhibition [2, 3] [%] | % PGE2 Inhibition [2, 4] [%] | % PGE2 Inhibition [2, 5] [%] | % PGE2 Inhibition [2, 6] [%] | % PGE2 Inhibition [2, 7] [%] | % PGE2 Inhibition ([2]; salicylic acid alone, 1 × 10−6 (column 1:10), UVB) | % PGE2 Inhibition ([2]; salicylic acid alone, 1 × 10−7 (1:1), UVB) | % PGE2 Inhibition ([2]; salicylic acid alone, 1 × 10−7 (10:1), UVB) | % PGE2 Inhibition ([2]; salicylic acid alone, 1 × 10−7 (50:1), UVB) | % PGE2 Inhibition ([2]; salicylic acid alone, 1 × 10−7 (100:1), UVB)
1 | CO/C=C(/C(=O)OC)c1ccccc1Oc1cc(Oc2ccccc2C#N)ncn1 [azoxystrobin] | low | 58 | 22 | 8 | 8 | 37 |  |  |  |  | 
2 | CNC(=O)/C(=N/OC)c1ccccc1COc1cc(C)ccc1C [dimoxystrobin] |  | 13 | 7 | 4 | 4 | 11 |  |  |  |  | 
3 | CO/N=C(/C1=NOCCO1)c1ccccc1Oc1ncnc(Oc2ccccc2Cl)c1F [fluoxastrobin] |  | 42 | 9 | 5 | 5 | 17 |  |  |  |  | 
4 | CO/N=C(/C(=O)OC)c1ccccc1COc1ccccc1C [kresoxim methyl] |  | 12 | 7 | 5 | 5 | 9 |  |  |  |  | 
5 | CNC(=O)/C(=N/OC)c1ccccc1CO/N=C(C)/C(=N/OC)C(/C)=N/OC [orysastrobin] |  | 36 | 12 | 6 | 6 | 18 |  |  |  |  | 
6 | CO/C=C(/C(=O)OC)c1ccccc1COc1cccc(C(F)(F)F)n1 [picoxystrobin] |  | 24 | 12 | 6 | 6 | 18 |  |  |  |  | 
7 | COC(=O)N(OC)c1ccccc1COc1ccn(-c2ccc(Cl)cc2)n1 [pyraclostrobin] |  | 70.4 | 46.0 | 30.4 | 30.4 | 55.3 |  |  |  |  | 
8 | O=C(O)c1ccccc1O [salicylic acid, reference compound] |  |  |  |  |  |  | 32% and 31.4% | 18% and 16.2% | 18% and 16.2% | 18% and 16.2% | 18% and 16.2%
9 | CON=C(C(=O)OC)c1ccccc1CON=C(C)c1cccc(C(F)(F)F)c1 [trifloxystrobin] |  | 8 | 7 | 5 | 5 | 8 |  |  |  |  | 
